Here are results for 79 molecules from the METLIN SMRT retention time set (Domingo-Almenara et al. 2019).

A short description of this series: gradient 5% acetonitrile 3 min, to 50% in 2 min, to 85% in 15 min, held 3 min, 100 µL/min. As to conditions: column: Zorbax Extend-C18 2.1 x 50 mm; eluents: water / acetonitrile, 0.1% formic acid. The essentials:
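Pure standards were run in mixtures of ~100 molecules by HPLC coupled to a quadrupole time-of-flight mass spectrometer. The column was a Zorbax Extend-C18 (2.1 × 50 mm, 1.8 μm) at 100 μL/min, with water and acetonitrile each containing 0.1% formic acid, in positive and negative ionization mode. Dead and dwell volumes were 40 μL and 900 μL. Retention time was taken from computationally picked adduct peaks, each manually inspected, with data collected over 3 months.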
Molecule `CCOc1ccc(-c2ccc(=O)n(Cc3nc(-c4cccc(OC)c4)no3)n2)cc1` yielded an RP-LC retention time of 949 s.

`O=C(c1n[nH]c2ccccc12)N1CCN(c2ccc(C(F)(F)F)cn2)CC1` had an RP-LC retention time of 832 s.

`CCN1C(=O)c2cccc3c(NC(=O)Nc4cccc(Cl)c4)ccc1c23` yielded an RP-LC retention time of 889 s.

As for `CC(C)n1cnc2ccc(-c3noc(COc4ccc(Cl)cc4)n3)cc21`, the RP-LC retention time is 853 s.

`CC(=O)c1cccc(NC(=O)Cn2c(=O)n(-c3ccccc3)c(=O)c3c2cc(C)n3C)c1` displayed an RP-LC retention time of 763 s.

`Cc1cc2nn(CC(=O)Nc3cccc(Cl)c3)c(=O)n2c(Nc2ccccc2)n1` displayed an RP-LC retention time of 1060 s.

`COc1cccc(N2CCN(S(=O)(=O)c3nn(C)cc3C(=O)NC3CC3)CC2)c1` came in with an RP-LC retention time of 818 s.

In the case of `O=C(CC1CCCC1)N1CCCC(c2nc(-c3ccncc3)n[nH]2)C1` (centres undefined), the RP-LC retention time came out at 577 s.

`CCCN1C(=O)COc2cc(-c3noc(C(=O)NCCCc4ccccc4)n3)ccc21` yielded an RP-LC retention time of 1090 s.

`O=C(CSc1ccc(N2CCCC(C(=O)NC3CC3)C2)nn1)Nc1cccc(C(F)(F)F)c1` (centres undefined) showed an RP-LC retention time of 687 s.

For the molecule `CN1C(=O)C2CCCCN2c2ccc(C(=O)N3CCc4ccccc4C3)cc21` (centres undefined), the RP-LC retention time amounted to 946 s.

In the case of `O=C(NCc1ccncc1)C1CC(=O)N(CCc2c[nH]c3ccc(F)cc23)C1` (centres undefined), the RP-LC retention time turned out to be 588 s.

In turn, `Cc1ccc(-c2cc(C(=O)NCCC3=CCCCC3)c(C)[nH]2)cc1C` showed an RP-LC retention time of 1120 s.

`CCN(CC)C(=O)CSc1nnc(-c2ccc3c(c2)OCCCO3)n1C`: the RP-LC retention time stood at 691 s.

As to `CCc1cc(C2CCCN2C(=O)Nc2ccc(C(=O)OC)cc2)on1` (centres undefined), the RP-LC retention time came out at 801 s.

`COc1ccc(NC(=O)N2CCN(c3nc4ccccc4nc3C(F)(F)F)CC2)cc1` yielded an RP-LC retention time of 993 s.

Molecule `CCOc1ccc(-c2ccc(=O)n(CCc3nc(-c4cc(OC)cc(OC)c4)no3)n2)cc1` came in with an RP-LC retention time of 1020 s.

Take `Cc1ccc(C)c(NC(=O)Nc2cccc(-c3cn4cccnc4n3)c2)c1`: the RP-LC retention time was 696 s.

`Cc1nn(-c2cc(N3CCCC3)ncn2)c(C)c1CCC(=O)NCc1ccco1` displayed an RP-LC retention time of 686 s.

Molecule `COc1ccc(-c2cn3cccnc3n2)cc1NC(=O)c1ccccc1F` had an RP-LC retention time of 706 s.

`Cc1csc(-c2cc(S(=O)(=O)N3CCC(C)CC3)cn2CC(=O)N2CCCCC2)n1` showed an RP-LC retention time of 1130 s.

The molecule `O=C(Cc1nnc2c(-c3nc(C4CC4)no3)cccn12)N1CCSCC1` yielded an RP-LC retention time of 653 s.

Molecule `CCOC(=O)CC1(NC(=O)Nc2ccc3nc(C)cc(OC)c3c2)CCCCC1` had an RP-LC retention time of 689 s.

Consider `CN(C)C(=O)c1cnn(-c2cccc(F)c2)c1-n1cccc1`, for which the RP-LC retention time came to 806 s.

The molecule `Cn1c(=O)sc2cc(S(=O)(=O)N3CCC(C(=O)NCc4cccnc4)CC3)ccc21` came in with an RP-LC retention time of 603 s.

With `CC(C)CN1CCCC(COc2ccccc2C(=O)NC2CC2)C1` (centres undefined), the RP-LC retention time turned out to be 606 s.

As to `O=C(Nc1ccccc1)c1nnc(CSCC(=O)N2CCN(c3ccccn3)CC2)s1`, the RP-LC retention time worked out at 631 s.

Molecule `Cc1ccc(CN(C(=O)c2ccc(OCC(C)C)cc2)C2CCS(=O)(=O)C2)o1` (centres undefined) gave an RP-LC retention time of 1060 s.

Turning to `CCn1c(=O)c2cc(C(=O)Nc3cccc(C(=O)OC)c3)nn2c2ccccc21`, the RP-LC retention time was 977 s.

As for `CC(=O)N1CCC(c2nc(-c3ccc(CNC(=O)C4CC4)s3)no2)CC1`, the RP-LC retention time came to 661 s.

In turn, `Cc1cccc(S(=O)(=O)NC2CCN(c3ccc(F)cc3)C2=O)c1` (centres undefined) displayed an RP-LC retention time of 928 s.

As for `COc1ccc(-c2nnc(-c3cccnc3NCc3cccc(OC)c3OC)o2)cc1`, the RP-LC retention time was determined as 1060 s.

`Cc1csc(-c2cc(S(=O)(=O)N3CCC(Cc4ccccc4)CC3)c(C)n2C)n1` showed an RP-LC retention time of 1300 s.

Molecule `COc1ccc(-c2cc(C(=O)N3CCN(S(=O)(=O)c4ccc(C)cc4C)CC3)[nH]n2)cc1` gave an RP-LC retention time of 924 s.

Take `CC(=O)Nc1ccc(NC(=O)C2CCN(S(=O)(=O)c3ccc4c(c3)sc(=O)n4C)CC2)cc1`: the RP-LC retention time worked out at 686 s.

Consider `COc1ccc(Cc2nc(-c3ccc4nnc(C)n4c3)no2)cc1Cl`, for which the RP-LC retention time is 822 s.

As for `CC(C)CCNC(=O)C1CCN(Cc2cc3ccccc3n2Cc2ccccc2Cl)CC1`, the RP-LC retention time came out at 829 s.

`CN1CCN(CCNC(=O)c2ccc3c(c2)N(C)C(=O)C2CCCCN32)CC1` (centres undefined) gave an RP-LC retention time of 572 s.

`Cc1cc(NC(=O)N2CCC(c3cc(N)on3)CC2)ccc1Br`: the RP-LC retention time turned out to be 790 s.

The molecule `CCOC(=O)N1CCN(C(c2ccc(F)cc2)c2sc3ncnn3c2O)CC1` (centres undefined) returned an RP-LC retention time of 667 s.

As for `COC(=O)Cn1c(C2CC(=O)N(c3ccc(OC)cc3)C2)nc2ccccc21` (centres undefined), the RP-LC retention time is 709 s.

`O=C(NCC1CCOCC1)c1ccc2[nH]ccc2c1`: the RP-LC retention time is 742 s.

`CCOc1ccc(-c2nc(-c3ccc4c(c3)oc(=O)n4C)no2)cc1` showed an RP-LC retention time of 1130 s.

`CN1CCC(CCNC(=O)C2CCc3sc(C(=O)N4CCCC4)cc3C2)CC1` (centres undefined) gave an RP-LC retention time of 579 s.

Molecule `COc1ccc(Nc2cc(Cl)ccc2C(=O)O)cn1` displayed an RP-LC retention time of 978 s.

`Fc1ccc(OCc2nnc3sc(-c4ccccn4)nn23)cc1` came in with an RP-LC retention time of 846 s.

As for `Cc1ccc2c(c1)C(=O)NC1(CCN(C(=O)NCc3ccc(F)cc3)CC1)N2C`, the RP-LC retention time worked out at 761 s.

On to `Cc1ccc(-c2nnc(Cc3nc(-c4cccnc4)no3)o2)cc1C`, for which the RP-LC retention time was 845 s.

As to `CCOC(=O)c1cc(C2CC2)nc2c1c(=O)n(Cc1ccccc1C)c(=O)n2C`, the RP-LC retention time was found to be 1240 s.

The molecule `Cn1cnc(S(=O)(=O)N2CCN(Cc3cccc(F)c3)C3(CCOCC3)C2)c1` yielded an RP-LC retention time of 598 s.

Turning to `O=C(Cn1c(=O)n(Cc2cccnc2)c(=O)c2ncccc21)c1ccc2c(c1)OCCO2`, the RP-LC retention time came out at 554 s.

Regarding `FC(F)(F)c1cccc(-c2ccc(CNC3CC3)o2)c1`, the RP-LC retention time was 695 s.

For the molecule `O=C(Nc1ccccc1F)C1CCN(S(=O)(=O)c2cc(C(=O)N3CCCCCC3)cs2)CC1`, the RP-LC retention time worked out at 916 s.

The molecule `COc1ccc(CC(=O)N2CCCC2c2c(C)noc2C)cc1` (centres undefined) yielded an RP-LC retention time of 727 s.

Consider `CC(C)Cn1c(=O)c(C(=O)NCCCN2CCCCC2)nc2cccnc21`, for which the RP-LC retention time was found to be 642 s.

Consider `O=C(NC1CCCCC1)C1CCCN(c2ccc(=O)n(-c3ccc(F)cc3)n2)C1` (centres undefined), for which the RP-LC retention time amounted to 804 s.

Molecule `CN(C)c1nc2ncn3c(=O)n(CC(=O)NCCc4ccc(Cl)cc4)nc3c2s1` gave an RP-LC retention time of 706 s.

As for `Cc1ccsc1C(=O)N1C[C@H]2C[C@H](C1)[C@H]1CCCC(=O)N1C2`, the RP-LC retention time was 754 s.

In turn, `O=C(c1ccc(C(F)(F)F)cc1)N1CCN(c2nc(CN3CCCCC3)cs2)CC1` gave an RP-LC retention time of 684 s.

Regarding `Cc1cc(=O)n(CC(=O)Nc2ccc(F)cc2C)c(N2CCCCC2)n1`, the RP-LC retention time amounted to 695 s.

`CCNc1nc(NCC)n2c(SCC(=O)Nc3ccccc3[N+](=O)[O-])nnc2n1` displayed an RP-LC retention time of 623 s.

For `Cc1csc(-c2cn(CC(=O)NCc3cccc(C(F)(F)F)c3)cn2)n1`, the RP-LC retention time amounted to 716 s.

`Cc1nc(-c2csc(S(=O)(=O)N3CCCC(C(=O)Nc4cccc(F)c4)C3)c2)no1` (centres undefined) gave an RP-LC retention time of 978 s.

The molecule `CCc1nnc2ccc(NC3CC3)nn12` had an RP-LC retention time of 657 s.

Molecule `CSc1ncc2[nH]c(C(O)c3ccccc3)nc2n1` (centres undefined) showed an RP-LC retention time of 692 s.

In turn, `CCCS(=O)(=O)N1CCC(N2C(=O)[C@H](OC)[C@@H]2c2ccncc2)CC1` displayed an RP-LC retention time of 700 s.

In the case of `CCCCN(C)C(=O)C1CCN(c2nccc(C)n2)CC1`, the RP-LC retention time came out at 674 s.

`O=C(COc1ccccc1)N1CCN(C(=O)c2nnn3c2COC(c2ccc(Cl)cc2)C3)CC1` (centres undefined) gave an RP-LC retention time of 922 s.

`C[C@@H](NC(=O)c1cc(C(=O)N[C@@H](Cc2ccccc2)[C@H](O)CNC2CC2)cc(N(C)S(C)(=O)=O)c1)c1ccccc1` registered an RP-LC retention time of 705 s.

For the molecule `Cc1cc(-c2cc(S(=O)(=O)N3CCN(C4CCCCC4)CC3)c(C)s2)n[nH]1`, the RP-LC retention time stood at 657 s.

With `Cc1ccc(N2CC(c3nc(-c4ccc5c(c4)oc(=O)n5C(C)C)no3)CC2=O)cc1` (centres undefined), the RP-LC retention time came to 990 s.

Consider `Cc1nn(CC(=O)NCCCN2CCOCC2)c(=O)c2nc(-c3ccccc3)sc12`, for which the RP-LC retention time is 615 s.

The molecule `CCn1c(=O)cc(OCC(=O)N2CCN(c3ccccn3)CC2)c2ccccc21` yielded an RP-LC retention time of 584 s.

In turn, `COc1ccc(-c2nnc(-c3ccccc3)o2)cc1S(=O)(=O)NC1CCCC1` had an RP-LC retention time of 966 s.

For `Cc1cc(NC(=O)N2CCCC(Cn3cnc4cccnc43)C2)ccc1Br` (centres undefined), the RP-LC retention time was determined as 784 s.

For `Cc1[nH]c(C(=O)N2CCC(CC(=O)NCc3ccccc3)CC2)c(C)c1C(=O)OC(C)C`, the RP-LC retention time amounted to 802 s.

`CCCC(NC(=O)c1ccccc1)C(=O)Nc1nc2ccccc2[nH]1` (centres undefined) showed an RP-LC retention time of 688 s.

In the case of `Cc1nc2nc(-c3ccc(Cl)cc3)nn2c(C)c1CC(=O)NC(C)C`, the RP-LC retention time came to 790 s.

`c1cc(-c2noc(C3CCOCC3)n2)ccc1OC1CNC1` registered an RP-LC retention time of 640 s.
